Assays:
PNPase core = settings: X-ray, PDB: 3GCM; cited from earlier work
Excerpt: Previous studies identified a PNPase binding motif encompassing residues 1039–1061 at the very C-terminus of E. coli RNase E (Fig. 1). […] Following the β-strand, there is a stretch of eight residues containing three prolines and two charged amino acids. The RNase E residues 1048–1061 will be referred to as ‘β1 motif’ hereafter (Fig. 2A). Multiple sequence alignment s ...

[1] = biological target: the molecule itself; assay: cryo-EM structure; purified PNPase core and RNase E-muGFP-CHis mixed 1:2, complex separated on Superdex 200 Increase in 20 mM Tris–HCl pH 8.0, 25 mM MgCl2, 150 mM KCl, 1 mM TCEP; 8 mM CHAPSO; E. coli and S. enterica proteins

Molecule: RNase E residues 1021–1061: peptide encompassing RNase E residues 1021–1061 in crystal structure with PNPase (EAPRHSDWQRPTFAFEGKGAAGGHTATHHASAAPARPQPVE; UniProt P21513 1021-1061, looked up, fragment)
- binding mode in crystal structure (PNPase core): forms a β-strand that extends an exposed β-sheet of the PNPase core

B1: S. enterica PNPase core (domain or fragment, Salmonella enterica serovar Typhimurium, UniProt Q8ZLT3 1-552, looked up)
chain: MLNPIVRKFQYGQHTVTLETGMMARQATAAVMVSMDDTAVFVTVVGQKKAKPGQDFFPLTVNYQERTYAAGRIPGSFFRREGRPSEGETLIARLIDRPVRPLFPEGFVNEVQVIATVVSVNPQVNPDIVAMIGASAALSLSGIPFNGPIGAARVGYINDQYVLNPTQDELKESKLDLVVAGTEAAVLMVESEAELLSEDTMLGAVVFGHEQQQVVIQAINDLVKEAGKPRWDWQPEAVNDALNARVAALAESRLSDAYRITDKQERYAQVDVIKSETIEQLIAEDETLDANELGEILHAIEKNVVRSRVLAGEPRIDGREKDMIRGLDVRTGVLPRTHGSALFTRGETQALVTATLGTARDAQVLDELMGERTDSFLFHYNFPPYSVGETGMVGSPKRREIGHGRLAKRGVLAVMPDMDKFPYTVRVVSEITESNGSSSMASVCGASLALMDAGVPIKAAVAGIAMGLVKEGDNYVVLSDILGDEDHLGDMDFKVAGSRDGISALQMDIKIEGITKEIMQVALNQAKGARLHILGVMEQAINAPRGDISEFA
notes: polynucleotide phosphorylase (PNPase) core, Salmonella enterica serovar Typhimurium, aa 1–552; also called Salmonella typhimurium polynucleotide phosphorylase core; source: E. coli Evo21(DE3), purified (Ni-NTA, intein cleavage, HIC, Q, Superdex 200); not shown: Mycobacterium xenopi GyrA intein, C-terminal, cleaved; His8, C-terminal, cleaved
- stoichiometry N [1]: 3
